Data: PMC8006714 (Chemical Communications (Cambridge, England), 2021)
Counter-ions that a name gives are not always drawn.

Target: SARS-CoV-2 M^pro (Severe acute respiratory syndrome coronavirus 2, UniProt P0DTD1)
Test: biochemical
Type: biochemical
Conditions: not given

| Compound | % Mpro inhibition at 20 µM | M^pro inhibition (in words) | inhibition at a fixed 20 μM inhibitor concentration [%] |
| --- | --- | --- | --- |
| CCCN1CCc2cccc3c2[C@H]1Cc1ccc(O)c(O)c1-3.Cl [(R)-(−)-Propylnorapomorphine hydrochloride] | 100.0% |  |  |
| CC(C)(C)c1ccc(S(=O)(=O)/C=C/C#N)cc1 [Bay 11-7085] | 95.0% |  |  |
| O=Nc1ccc2oc(=O)ccc2c1 [6-Nitroso-1,2-benzopyrone] | 99.5% |  |  |
| CCN[C@@H]1C[C@H](N)[C@@H](O[C@H]2OC(CN)=CC[C@H]2N)[C@H](O)[C@H]1O[C@H]1OC[C@](C)(O)[C@H](NC)[C@H]1O.CCN[C@@H]1C[C@H](N)[C@@H](O[C@H]2OC(CN)=CC[C@H]2N)[C@H](O)[C@H]1O[C@H]1OC[C@](C)(O)[C@H](NC)[C@H]1O.O=S(=O)(O)O.O=S(=O)(O)O.O=S(=O)(O)O.O=S(=O)(O)O.O=S(=O)(O)O [Netilmicin sulfate] | 89.1% |  |  |
| CO/N=C(\C(=O)N[C@@H]1C(=O)N2C(C(=O)O)=C(CSC(=O)c3ccco3)CS[C@H]12)c1csc(N)n1.Cl [Ceftiofur hydrochloride] | 65.0% |  |  |
| CC(Cc1ccc(O)c(O)c1)C(C)Cc1ccc(O)c(O)c1 (centres unmarked) [Nordihydroguaiaretic acid] | 97.8% |  |  |
| Br.CN=c1nc(-c2ccccc2)n(-c2ccccc2)s1 [Sch-202676 hydrobromide] | 100.0% |  |  |
| [Cl-].[NH3+][Pt-2]([NH3+])([Cl])[n+]1ccccc1 (stereo not drawn) [cis-Diammine(pyridine)chloroplatinum(II) chloride] | 99.6% |  |  |
| CC(C)N(CCC(=O)c1ccc2ccccc2c1)Cc1ccccc1.Cl [ZM 39923 hydrochloride] | 96.9% |  |  |
| Oc1ccccc1O [Pyrocatechol] | 85.4 |  |  |
| Colistin sulfate | 95.8% |  |  |
| OC[C@H]1O[C@H]([S-])[C@H](O)[C@@H](O)[C@@H]1O.[Au+] [Aurothioglucose] | 96.6% |  |  |
| CC=CC1=C(C(=O)O)N2C(=O)[C@@H](NC(=O)[C@H](N)c3ccc(O)cc3)[C@H]2SC1 [Cefprozil] | 57.5% |  |  |
| NC(=O)CI [Iodoacetamide] | 99.3% |  |  |
| CC(=O)OCC1=C(C(=O)[O-])N2C(=O)[C@@H](NC(=O)CCCC(N)C(=O)O)[C@H]2SC1.[Na+] (some centres unmarked) [Cephalosporin C sodium] | 78.3% | inhibited |  |
| Br.NC1CCc2cc(O)c(O)cc2C1 (racemic) [(±)-2-Amino-6,7-dihydroxy-1,2,3,4-tetrahydronaphthalene hydrobromide] | 88.3% |  |  |
| NC(N)=Nc1ccc2[nH]c3c(c2c1)C[C@@]1(O)[C@H]2Cc4ccc(O)c5c4[C@@]1(CCN2CC1CC1)[C@H]3O5.O=C(O)C(F)(F)F.O=C(O)C(F)(F)F [Guanidinyl-naltrindole di-trifluoroacetate] | 99.6% |  |  |
| O=C([O-])c1ccccc1-c1c2cc(I)c(=O)c(I)c-2oc2c(I)c([O-])c(I)cc12.[Na+].[Na+] [Erythrosine sodium] | 86.5% |  |  |
| (R)-(−)-2,10,11-Trihydroxyaporphine hybrobromide | 99.6% |  |  |
| Chlorophyllide copper complex sodium salt | 86.5% |  |  |
| CCN(CC)C(=S)SSC(=S)N(CC)CC [Disulfiram, Tetraethylthiuram disulphide] |  |  | ≥ 80 |
| C[n+]1cc2c3c(ccc2c2ccc4cc5c(cc4c21)OCO5)OCO3 [Sanguinarium chloride, Sanguinarine chloride] | 98.7% |  |  |
| O=C(N[C@@H](Cc1ccccc1)C(=O)CCl)OCc1ccccc1 [N-Carbobenzyloxy-L-phenylanlanyl chloromethyl ketone] | 100.0% |  |  |
| Br.CCCN1CCc2cc(O)cc3c2[C@H]1Cc1ccc(O)c(O)c1-3 [(R)-(−)-2,10,11-Trihydroxy-n-propylnoraporphine hydrobromide] | 98.3% |  |  |
| N.S=C(S)N1CCCC1 [Ammonium pyrrolidinedithiocarbamate] | 95.1% |  |  |

Same assay, conditions: 20, 50 and 100 µM β-lactam; 30 min or 60 min preincubation (Fig. S17)

| Compound | M^pro inhibition at single concentrations (in words) |
| --- | --- |
| CC1(C)S[C@@H]2[C@H](NC(=O)COc3ccccc3)C(=O)N2[C@H]1C(=O)O [penicillin V] | No inhibition was observed |
| CC1(C)S[C@@H]2[C@H](NC(=O)Cc3ccccc3)C(=O)N2[C@H]1C(=O)O [penicillin G] | No inhibition was observed |
| O=C1[C@H](CC[C@H](O)c2ccc(F)cc2)[C@@H](c2ccc(O)cc2)N1c1ccc(F)cc1 [ezetimibe] | weak time dependent inhibition |
| C=CC1=C(C(=O)O)N2C(=O)[C@@H](NC(=O)/C(=N\O)c3csc(N)n3)[C@H]2SC1 [Cefdinir] | weak time dependent inhibition |
| CO/N=C(\C(=O)N[C@@H]1C(=O)N2C(C(=O)O)=C(CSC(=O)c3ccco3)CS[C@H]12)c1csc(N)n1 [ceftiofur] | weak time dependent inhibition |
| CC1(C)S[C@@H]2[C@H](NC(=O)[C@H](N)c3ccccc3)C(=O)N2[C@H]1C(=O)OC1OC(=O)c2ccccc21 (some centres unmarked) [talampicillin] | weak time dependent inhibition |

Same assay, conditions: SPE-MS, concentration not given

| Compound | M^pro inhibition (in words) |
| --- | --- |
| CC1=C(C(=O)O)N2C(=O)[C@@H](NC(=O)[C@H](N)c3ccccc3)[C@H]2SC1 [cephalexin] | no Mpro inhibition was observed |

Same assay, conditions: library of FDA-approved small molecules; 20 µM compound, […] Mpro, 2.0 µM TSAVLQ/SGFRK-NH2; read-out: % Mpro inhibition at 20 µM

| Compound | inhibition at 20 µM [%] |
| --- | --- |
| Cc1c(-c2cnccn2)ssc1=S [Oltipraz] | 99.6 |

Same assay, conditions: read-out: % Mpro inhibition at 20 µM

| Compound | inhibition at 20 µM [%] |
| --- | --- |
| Oc1cc(O)cc(/C=C/c2ccc(O)c(O)c2)c1 [Piceatannol] | 93.8 |
| CC(=O)/N=c1/sc(S(N)(=O)=O)nn1C [Methazolamide] | 82.9 |
| CO/N=C(\C(=O)N[C@@H]1C(=O)N2C(C(=O)O)=C(C[N+]3(C)CCCC3)CS[C@H]12)c1csc(N)n1 [Cefepime hydrochloride] | 20.6 |
| COc1ccc2c(c[n+](C)c3c4cc5c(cc4ccc23)OCO5)c1OC [Chelerythrine chloride] | 85.2 |
| NCc1ccccc1CC(=O)N[C@@H]1C(=O)N2C(C(=O)O)=C(CSc3nnnn3CC(=O)O)CS[C@H]12 [Ceforanide] | 10.2 |
| O=C1C=CC(=O)C=C1 [1,4-Benzoquinone] | 99.3 |
| C[n+]1cc2c3c(ccc2c2ccc4cc5c(cc4c21)OCO5)OCO3 [Sanguinarium chloride, Sanguinarine chloride] | 100 |
| NC(=O)c1cc[n+](CC2=C(C(=O)[O-])N3C(=O)[C@@H](NC(=O)Cc4cccs4)[C@H]3SC2)cc1 [Cefalonium] | 9.2 |
| S=C=NCc1ccccc1 [Benzyl isothiocyanate] | 95.8 |
| CC[N+]1(C)CCCC(OC(=O)C(O)(c2ccccc2)c2ccccc2)C1 (centres unmarked) [Pipenzolate bromide] | 100 |
| O=c1oc(Cl)c(Cl)c2ccccc12 [3,4-Dichloroisocoumarin] | 80.4 |

Same assay, conditions: read-out: % Mpro inhibition at 20 µM, LOPAC1280 library; 20 µM compound, […] Mpro, 2.0 µM TSAVLQ/SGFRK-NH2

| Compound | inhibition at 20 µM [%] |
| --- | --- |
| N[C@@H](C(=O)N[C@@H]1C(=O)N2C(C(=O)O)=C(Cl)CS[C@H]12)c1ccccc1 [Cefaclor] | 8.7 |
| Oc1cc2c(cc1O)CN(C(=S)NCCc1ccc(Cl)cc1)CCC2 [Capsazepine] | 94.5 |
| CCN(CC)C(=S)SSC(=S)N(CC)CC [Disulfiram, Tetraethylthiuram disulphide] | 97.5 |

Same assay, conditions: read-out: % Mpro inhibition at 20 µM, library of FDA-approved small molecules; 20 µM compound, […] Mpro, 2.0 µM TSAVLQ/SGFRK-NH2

| Compound | inhibition at 20 µM [%] |
| --- | --- |
| CCN(CC)C(=S)SSC(=S)N(CC)CC [Disulfiram, Tetraethylthiuram disulphide] | 99.1 |
| O=[N+]([O-])c1ccc(O)c2ncccc12 [Nitroxoline] | 96 |
